# Assay results reported in patent publication EP0035868A1, “Bicyclic compounds, their production and use” (Takeda Chemical Industries, Ltd., priority 1980, dated 1981).
# Biological target: T1, ACE (angiotensin I converting enzyme) (Oryctolagus cuniculus, UniProt P12822)
# T1 sequence (P12822 34-1310): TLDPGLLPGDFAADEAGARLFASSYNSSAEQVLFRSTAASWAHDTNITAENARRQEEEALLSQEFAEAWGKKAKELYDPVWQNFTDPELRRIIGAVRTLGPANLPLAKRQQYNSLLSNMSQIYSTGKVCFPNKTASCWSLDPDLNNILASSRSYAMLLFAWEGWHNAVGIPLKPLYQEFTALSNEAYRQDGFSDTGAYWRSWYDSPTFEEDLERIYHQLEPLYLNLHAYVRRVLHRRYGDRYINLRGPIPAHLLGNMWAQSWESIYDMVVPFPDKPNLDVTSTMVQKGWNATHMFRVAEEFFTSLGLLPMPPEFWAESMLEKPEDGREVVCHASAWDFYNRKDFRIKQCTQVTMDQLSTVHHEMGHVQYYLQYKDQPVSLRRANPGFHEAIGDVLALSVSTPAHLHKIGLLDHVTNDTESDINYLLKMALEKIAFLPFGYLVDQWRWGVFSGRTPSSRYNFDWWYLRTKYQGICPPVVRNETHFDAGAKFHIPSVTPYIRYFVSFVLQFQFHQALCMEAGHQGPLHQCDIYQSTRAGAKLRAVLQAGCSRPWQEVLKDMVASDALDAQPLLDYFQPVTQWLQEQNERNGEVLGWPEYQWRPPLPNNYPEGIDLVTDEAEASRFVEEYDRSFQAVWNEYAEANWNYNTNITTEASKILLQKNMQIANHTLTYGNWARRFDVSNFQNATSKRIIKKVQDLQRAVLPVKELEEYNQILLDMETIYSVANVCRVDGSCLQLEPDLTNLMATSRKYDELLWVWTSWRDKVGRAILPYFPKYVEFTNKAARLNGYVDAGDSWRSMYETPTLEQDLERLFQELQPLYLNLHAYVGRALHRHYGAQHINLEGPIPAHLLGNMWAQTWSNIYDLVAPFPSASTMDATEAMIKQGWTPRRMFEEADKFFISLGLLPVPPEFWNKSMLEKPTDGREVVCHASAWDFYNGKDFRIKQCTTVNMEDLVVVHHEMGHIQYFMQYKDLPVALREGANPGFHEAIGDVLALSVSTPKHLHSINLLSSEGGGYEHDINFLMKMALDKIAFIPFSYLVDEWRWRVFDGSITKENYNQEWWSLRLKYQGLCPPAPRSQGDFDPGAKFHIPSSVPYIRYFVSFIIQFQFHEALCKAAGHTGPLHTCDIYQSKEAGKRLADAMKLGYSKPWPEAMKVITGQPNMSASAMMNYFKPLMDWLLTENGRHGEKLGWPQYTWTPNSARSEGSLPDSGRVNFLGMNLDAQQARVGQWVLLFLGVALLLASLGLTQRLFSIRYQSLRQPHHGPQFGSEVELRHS
# Assay: Inhibition of angiotensin I converting enzyme (HHL substrate, modified Cushman method)
# Format: biochemical
# Conditions: Concentration 1 μM, 37°C, one hour, read-out: Inhibitory Activity on ACE (%)
# Protocol: The experiment was conducted in accordance with a modification of the method described by Cushman et al. [Biochemical Pharmacology, Vol. 20, pl637(1971)].
# That is, using hippuryl-L-histidyl-L-leucine(HHL) as the substrate, the ACE (angiotensin I converting enzyme) inhibitory activity was determined in terms of percent inhibition on the amount of hippuric acid produced by ACE when the present compound was added. A solution of the compound of the present invention dissolved in a 0.02 to 2% dimethyl sulfoxide-500 mM potassium phosphate buffer solution (pH 8.3, containing 300 mM sodium chloride) was added to 100 µl of ACE (protein concentration, 20 mg/ml) and 100 µl of 1.25 mM HHL. In this experiment, a potassium phosphate buffer solution containing dimethyl sulfoxide at a concentration equal to that of the test solution was used as a control. After incubating the solution at 37°C for one hour, 150 µl of 1N hydrochloric acid was added to the solution to terminate the reaction. After 1 ml of ethyl acetate was added, the solution was centrifuged at 3000 r.p.m. for 10 minutes. A 0.5 ml aliquot was separated from the ethyl acetate layer and dried at a temperature below 50°C under nitrogen gas streams. The residue was mixed with 5 ml of 1M aqueous sodium chloride and the mixture was subjected to colorimetry at a wavelength of 228 nm.
row,SMILES,inhibition at 1 µM
1,"CC(=O)SCC(C)C(=O)N(CC(=O)O)C1CCc2ccccc2C1 (centres unmarked) [Example 32, N-(3-acetylthio-2-methylpropionyl)-N-(1,2,3,4-tetrahydro-2-naphthyl)glycine]",73%
2,"COc1cc2c(cc1OC)C(N(CC(=O)O)C(=O)C(CSC(C)=O)CSC(C)=O)CC2 (centres unmarked) [Example 43, N-(3-acetylthio-2-acetylthiomethylpropionyl)-N-(5,6-dimethoxy-1-indanyl)glycine]",32%
3,"COc1cc2c(cc1OC)C(N(CC(=O)O)C(=O)C(C)CS)CC2 (stereo not drawn) [Example 45, N-(3-mercapto-2-methylpropionyl)-N-(5,6-dimethoxy-l-indanyl)glycine]",74%
4,"CC(=O)SCCC(=O)N(CC(=O)O)C1Cc2ccccc2C1 [Example 40, N-(3-acetylthiopropionyl)-N-(2-indanyl) glycine]",77%
5,CC(=O)SCC(C)C(=O)N(CC(=O)O)C1CCOc2ccc(Cl)cc21 (centres unmarked) [Example 21],19%
6,CC(=O)SCC(C)C(=O)N(CC(=O)O)C1CCc2cc(O)ccc21 (centres unmarked) [Example 6],45%
7,"C[C@H](CSC(=O)c1ccccc1)C(=O)N(CC(=O)O)C1Cc2ccccc2C1 [Example 38, N-(3-benzoylthio-2(S)-methylpropionyl)-N-(2-indanyl)glycine]",86%

# Same assay, conditions: Concentration 10 μM, 37°C, one hour, read-out: Inhibitory Activity on ACE (%)
row,SMILES,inhibition at 10 µM
1,"CC(=O)SCC(C)C(=O)N(CC(=O)O)C1CCc2ccccc2C1 (centres unmarked) [Example 32, N-(3-acetylthio-2-methylpropionyl)-N-(1,2,3,4-tetrahydro-2-naphthyl)glycine]",95%
2,"COc1cc2c(cc1OC)C(N(CC(=O)O)C(=O)C(CSC(C)=O)CSC(C)=O)CC2 (centres unmarked) [Example 43, N-(3-acetylthio-2-acetylthiomethylpropionyl)-N-(5,6-dimethoxy-1-indanyl)glycine]",75%
3,"COc1cc2c(cc1OC)C(N(CC(=O)O)C(=O)C(C)CS)CC2 (stereo not drawn) [Example 45, N-(3-mercapto-2-methylpropionyl)-N-(5,6-dimethoxy-l-indanyl)glycine]",99%
4,"CC(=O)SCCC(=O)N(CC(=O)O)C1Cc2ccccc2C1 [Example 40, N-(3-acetylthiopropionyl)-N-(2-indanyl) glycine]",92%
5,CC(=O)SCC(C)C(=O)N(CC(=O)O)C1CCOc2ccc(Cl)cc21 (centres unmarked) [Example 21],66%
6,CC(=O)SCC(C)C(=O)N(CC(=O)O)C1CCc2cc(O)ccc21 (centres unmarked) [Example 6],88%
7,"C[C@H](CSC(=O)c1ccccc1)C(=O)N(CC(=O)O)C1Cc2ccccc2C1 [Example 38, N-(3-benzoylthio-2(S)-methylpropionyl)-N-(2-indanyl)glycine]",98%

# Tested on: Hypertensive Activity of Angiotensin I
# Assay: Effect against hypertensive activity of angiotensin I in rats, oral administration
# Format: in vivo, Male rats (Sprague-Dawley)
# Conditions: After 20 min.; 13.8 µM/kg orally; angiotensin I 300 ng/kg i.v.; corrected by angiotensin II reaction
# Protocol: Male rats (Sprague-Dawley) weighing 250 g to 350 g which were fed under free access to drinking water and feeds were used as experimental animals. The rats were anesthetized with intraperitoneal administration of pentobarbital sodium (50 mg/kg) on the day before the test day and a polyethylene tube was inserted into each of the femoral artery for measurement of blood pressure and the femoral vein for injection of angiotensin I and II, and then the tubes were fixed.
# On the test day, an average blood pressure in the control phase was recorded on an electric hemodynamometer (MP-4T model manufactured by Nippon Koden, Japan) and thereafter angiotensin I and then angiotensin II were injected through the femoral vein at a dose of 300 ng/kg and 100 ng/kg respectively, to measure the hypertensive activity. Then, 13.8 µM/kg of the compound of this invention was administered orally as an aqueous solution or an aqueous gum arabic suspension, and 20, 60 and 120 minutes after the administration, angiotensin I and II were injected repeatedly to trace hypertensive reactions. In calculating the percent inhibition to the hypertensive acitivity of angiotensin I, the-percent inhibitory value was corrected based on the variation with time in the hypertensive reaction by angiotensin II.
row,SMILES,Percent Inhibition (%) against Hypertensive Reaction by Angiotensin I
1,"COc1ccc2c(c1)C(N(CC(=O)O)C(=O)C(C)CSC(C)=O)CC2 (stereo not drawn) [Example 1, N-(3-acetylthio-2-methylpropionyl)-N-(6-methoxy-l-indanyl)-glycine]",96%
2,"COc1cc2c(cc1OC)CC(N(CC(=O)O)C(=O)C(C)CSC(C)=O)C2 (centres unmarked) [Example 41, N-(3-acetylthio-2-methylpropionyl)-N-(5,6-dimethoxy-2-indanyl)glycine]",89%
3,"COc1cc2c(cc1OC)C(N(CC(=O)O)C(=O)C(C)CSC(C)=O)CC2 (centres unmarked) [Example 8, N-(3-Acetylthio-2-methylpropionyl)-N-(5,6-dimethoxy-1-indanyl)glycine]",86%
4,"CC(=O)SCC(C)C(=O)N(CC(=O)O)C1CCc2cc3c(cc21)OCO3 (centres unmarked) [Example 9, N-(3-acetylthio-2-methylpropionyl)-N-(5,6-methylenedioxy-I-indanyl)glycine]",81%
5,CC(=O)SCC(C)C(=O)N(CC(=O)O)C1CCc2ccccc21 (centres unmarked) [Example 3],95%
6,"CC(=O)SCC(C)C(=O)N(CC(=O)O)C1Cc2ccccc2C1 (centres unmarked) [Example 35, N-(3-acetylthio-2-methylpropionyl)-N-(2-indanyl)glycine]",100%
7,COc1ccc2c(c1OC)CCCC2N(CC(=O)O)C(=O)C(C)CSC(C)=O (centres unmarked) [Example 18],83%

# Same assay, conditions: After 60 min.; 13.8 µM/kg orally; angiotensin I 300 ng/kg i.v.; corrected by angiotensin II reaction
row,SMILES,Percent Inhibition (%) against Hypertensive Reaction by Angiotensin I
1,"COc1ccc2c(c1)C(N(CC(=O)O)C(=O)C(C)CSC(C)=O)CC2 (stereo not drawn) [Example 1, N-(3-acetylthio-2-methylpropionyl)-N-(6-methoxy-l-indanyl)-glycine]",94%
2,"COc1cc2c(cc1OC)CC(N(CC(=O)O)C(=O)C(C)CSC(C)=O)C2 (centres unmarked) [Example 41, N-(3-acetylthio-2-methylpropionyl)-N-(5,6-dimethoxy-2-indanyl)glycine]",93%
3,"COc1cc2c(cc1OC)C(N(CC(=O)O)C(=O)C(C)CSC(C)=O)CC2 (centres unmarked) [Example 8, N-(3-Acetylthio-2-methylpropionyl)-N-(5,6-dimethoxy-1-indanyl)glycine]",94%
4,"CC(=O)SCC(C)C(=O)N(CC(=O)O)C1CCc2cc3c(cc21)OCO3 (centres unmarked) [Example 9, N-(3-acetylthio-2-methylpropionyl)-N-(5,6-methylenedioxy-I-indanyl)glycine]",78%
5,CC(=O)SCC(C)C(=O)N(CC(=O)O)C1CCc2ccccc21 (centres unmarked) [Example 3],90%
6,"CC(=O)SCC(C)C(=O)N(CC(=O)O)C1Cc2ccccc2C1 (centres unmarked) [Example 35, N-(3-acetylthio-2-methylpropionyl)-N-(2-indanyl)glycine]",100%
7,COc1ccc2c(c1OC)CCCC2N(CC(=O)O)C(=O)C(C)CSC(C)=O (centres unmarked) [Example 18],70%

# Same assay, conditions: After 120 min.; 13.8 µM/kg orally; angiotensin I 300 ng/kg i.v.; corrected by angiotensin II reaction
row,SMILES,Percent Inhibition (%) against Hypertensive Reaction by Angiotensin I
1,"COc1ccc2c(c1)C(N(CC(=O)O)C(=O)C(C)CSC(C)=O)CC2 (stereo not drawn) [Example 1, N-(3-acetylthio-2-methylpropionyl)-N-(6-methoxy-l-indanyl)-glycine]",91%
2,"COc1cc2c(cc1OC)CC(N(CC(=O)O)C(=O)C(C)CSC(C)=O)C2 (centres unmarked) [Example 41, N-(3-acetylthio-2-methylpropionyl)-N-(5,6-dimethoxy-2-indanyl)glycine]",92%
3,"COc1cc2c(cc1OC)C(N(CC(=O)O)C(=O)C(C)CSC(C)=O)CC2 (centres unmarked) [Example 8, N-(3-Acetylthio-2-methylpropionyl)-N-(5,6-dimethoxy-1-indanyl)glycine]",91%
4,"CC(=O)SCC(C)C(=O)N(CC(=O)O)C1CCc2cc3c(cc21)OCO3 (centres unmarked) [Example 9, N-(3-acetylthio-2-methylpropionyl)-N-(5,6-methylenedioxy-I-indanyl)glycine]",59%
5,CC(=O)SCC(C)C(=O)N(CC(=O)O)C1CCc2ccccc21 (centres unmarked) [Example 3],83%
6,"CC(=O)SCC(C)C(=O)N(CC(=O)O)C1Cc2ccccc2C1 (centres unmarked) [Example 35, N-(3-acetylthio-2-methylpropionyl)-N-(2-indanyl)glycine]",91%
7,COc1ccc2c(c1OC)CCCC2N(CC(=O)O)C(=O)C(C)CSC(C)=O (centres unmarked) [Example 18],72%
